Experimental findings from patent publication EP0205025A1, “Fluorine derivatives of vitamin D3 and cell differentiation-inducing agents containing the same as an active ingredient” (SUMITOMO PHARMACEUTICALS COMPANY, LIMITED, priority 1985, dated 1986) are described below.

For test [1], the system named is HL-60 cells. Briefly: Proliferation-suppression rate of HL-60 cells (Coulter counter). It counts as cell-based. The following applies: Homo sapiens, 96 h, HL-60, 4 days, relative to untreated group; for inhibition at 0.01 µM: 1x10^-8 M (column of 1α, 25-(OH)2D3 printed 1x10^8); for inhibition at 0.003 µM: 3x10^-9 M. How it is done: An HL-60 cell fluid adjusted to a concentration of 5 x 10^4 cells/ml was incorporated with each of the agents to be tested and cultivated in a carbon dioxide incubator at 37°C for 4 days. After the cultivation, the number of cells was measured by means of a Coulter counter. The percentage of the number thus measured relative to the number of cells in an untreated group was calculated, from which the proliferation-suppression rate was obtained.

The test system of test [2] is HL-60 cells. Briefly: Binding property of monoclonal antibodies (MAS 072 anti-human monocyte, OKT 9 anti-human transferrin receptor) to treated HL-60 cells, indirect fluorescent antibody technique, FACS. It counts as cell-based. The following applies: for Binding property of monoclonal antibody MAS072 (%): anti-human monocyte antibody, control 17.0; for Binding property of monoclonal antibody OKT9 (%): anti-human transferrin receptor antibody, control 95.7. Here is the method:
HL-60 cells wre treated with the agent as described above, and then stained by indirect fluorescent antibody technique using monoclonal antibodies [MAS 072 (Sera-lab) anti-human monocyte and OKT 9 (Ortho-mune) anti-human transferrin receptor] and a fluorescent antibody [FITC-anti-mouse IgG (Miles)], and the resulting fluorescence intensity was determined by FACS to obtain the binding property of the monoclonal antibody in terms of a percentage.

The subject of test [3] is HL-60 cells. Briefly: NBT reduction of HL-60 cells after treatment (TPA stimulation, microscopy). It counts as cell-based, human. The following applies: HL-60 treated 4 days, percentage of NBT reduction-positive cells of 200 cells. Here is the method: Thereafter, the cells were smeared onto a slide glass, subjected to giemsa staining, and the coloration of cells was examined under a microscope. The number of colored cells was measured for 200 cells, and the results were expressed in terms of the percentage of NBT reduction- positive cells.

The mark [4] stands for this setting: 1x10^-8 M (column of 1α, 25-(OH)2D3 printed 1x10^8).

Each structure is given as a SMILES string.

One may read the inhibition as the percentage by which the read-out fell short of the control. For the compound `C=C1C(=CC=C2CCCC3(C)C2CCC3C(C)CCCC(C)(C)O)CC(O)CC1O` (stereo not drawn) [1α, 25-(OH)2D3, 1α, 25-dihydroxyvitamin D3], testing at 0.01 µM in test [1] gave an inhibition of 66%. Further, in test [1], 0.003 µM produced 47.2% inhibition. Further, the “Binding property of monoclonal antibody MAS072 (%)” value in test [2] (setting [4]) turned out to be 55.8%. The “Binding property of monoclonal antibody OKT9 (%)” value in test [2] (setting [4]) is 22.6%; in test [2] (3x10^-9 M), 61.5%. Also, the “NBT reduction rate (%)” value in test [3] (setting [4]) is listed as 87.0%; in test [3] (3x10^-9 M) it was 48.5%.
In test [1], `C=C1C(=CC=C2CCCC3(C)C2CCC3C(C)CCCC(C(F)(F)F)C(F)(F)F)CC(O)CC1O` (centres unmarked) [Compound A, 26,26,26,27,27,27-hexafluoro-la-hydroxyvitamin D3] registered an inhibition at 0.01 µM of 74.9% and an inhibition at 0.003 µM of 58.5%. Also, in test [2] (setting [4]), the “Binding property of monoclonal antibody MAS072 (%)” value was 79.0% and the “Binding property of monoclonal antibody OKT9 (%)” value is recorded as 11.1%. Moreover, the “Binding property of monoclonal antibody OKT9 (%)” value in test [2] (3x10^-9 M) is given as 16.7%. The “NBT reduction rate (%)” value in test [3] (setting [4]) came out at 91.5%. In test [3] (3x10^-9 M), the “NBT reduction rate (%)” value is recorded as 77.0%.
